According to paper PMC6240685, “Strong Inhibitory Effect, Low Cytotoxicity and High Plasma Stability of Steroidal Inhibitors of N-Methyl-D-Aspartate Receptors With C-3 Amide Structural Motif” (Frontiers in Pharmacology, 2018):
Read-outs that look alike come from different tables or passages of the source.

Key:
[1] = target: T1, GluN1/GluN2B receptors (Rattus norvegicus, UniProt P35439+Q00960); experiment: Patch-clamp inhibition of glutamate responses of GluN1/GluN2B receptors in transfected HEK293 cells; format: cell-based
T1 construct: expressed in transfected cells; host or cells: HEK293

[2] = system: HepG2 cells; experiment: Mitotoxicity, XTT viability in glucose vs galactose medium; settings: for Glu/Gal index (fold change): 24 h, HepG2, index higher than 3 indicates potential mitochondrial toxicity; for IC50: Homo sapiens, HepG2, 24 h
Method: (§1) (A) Hepatotoxicity provoked by compound 4 was assessed after 72 h incubation of HepG2 cells in low glucose medium (5 mM) in the presence of compound 4 (0.25–100 μM). (B) Mitochondrial toxicity was determined after 24 h incubation of HepG2 cells in either high glucose medium (25 mM) or galactose medium (10 mM) in the presence of compound 4 (2.5–150 μM). Cell viabilities were recorded in triplicates in three independent experiments and expressed as percentage of vehicle control ± SD and IC50 values were determined by GraphPad Prism software using following equation: Y = Bottom + (Top–Bottom)/(1 + 10ˆ((LogIC50-X)^∗HillSlope)), where IC50 is the concentration of compound 4 that inhibits cell viability half way between Bottom and Top plateaus, X is compound 4 concentration and HillSlope describes the steepness of the family of curves. […] (C) Concentration-dependent effect on ROS level. HepG2 cells were treated with compound 4 (0.25–100 μM) for 72 h, and then the intracellular level of total ROS in relative fluorescence units (RFU) was detected. The data are presented as the mean ± SD for at least three independent experiments and each experiment was carried out in triplicate. Final concentration of DMSO in samples was 1%. […] Single asterisks (^∗) indicate a significant difference (P < 0.05) compared to 1% DMSO control (one-way ANOVA with Dunnett’s post-test).
(§2) HepG2 cells (ATCC®, United Kingdom) were grown in complete Minimal Essential Medium (EMEM) (5.5 mM glucose) medium, supplemented with 10% (v/v) fetal calf serum, 200 μg/mL of streptomycin, 200 U/mL of penicillin G and 4 mM glutamine. They were cultured under a humidified atmosphere containing 5% CO2 at 37°C.
(§3) The cytotoxicity of the tested compounds was assessed with use of XTT cell proliferation kit II (Roche Diagnostics GmbH, Mannheim, Germany) according to the manufacturer’s instructions. Briefly HepG2 cells were seeded in a 96-well plate at a density of 22,000 cells per well. After 24 h, the tested neurosteroids in a concentration range from 0.5 to 200 μM were added to the culture media and incubated for 72 h before the XTT dye was added. Mitochondrial toxicity was assessed in HepG2 cells using glucose and galactose conditioned media and XTT assay as a read out for cell viability. In brief, cells were seeded onto 96 well, clear bottom tissue culture plates at a density of 22,000 cells/well and left overnight to attach. Six hours prior to the neurosteroids treatment the media was replaced with 100 μL DMEM media containing either glucose (25 mM glucose; 1 mM pyruvate; 2 mM glutamine, 10% FBS) or galactose (10 mM galactose, 1 mM pyruvate, 6 mM glutamine, 10% FBS). After that, the tested neurosteroids in a concentration range from 0.5 to 200 μM were added in the fresh appropriate assay medium (glucose or galactose) and incubated for 24 h before the XTT dye was added. The XTT absorbance was recorded at 495 nm after 1 h incubation with the dye. Compounds were dissolved in DMSO to produce the stock solutions at the concentration of 10 mM, with exception of PAG, 1, 6 (5 mM), and 11 (2.5 mM). Results were expressed as percentages of change in viability compared to appropriate DMSO control. IC50 values were determined by GraphPad Prism version 5.00 for Windows (GraphPad Software, La Jolla, CA, United States). All experiments were done in triplicates in three independent experiments to check the reproducibility.

[3] = Plasma stability, human plasma; format: in vitro ADME
Method: Then, 37.8 μL of stock solution was added to 1400 μL of human plasma, maintained at 37°C. Aliquots (50 μL) withdrawn at 0, 1, 4, 8, and 24 h were analyzed by HPLC. […] The supernatant was transferred to an autosampler vial and 1 μL was injected onto LC-MS system. The samples were analyzed with an Agilent 1260 HPLC (Agilent Technologies) coupled to ESI-TOF Agilent 6530 (Agilent Technologies) with Agilent Jet Stream Technology. Samples were separated on a Waters ACQUITY UPLC CSH Phenyl-Hexyl (100 × 2.1, 130 Å, 1.7 μm) at a flow rate 0.3 ml/min. […] The mass spectrometry instrument was operated in a negative ion mode with a voltage of +3.00 kV applied to the capillary. The temperature, the flow rate of the nitrogen drying gas, the pressure of the nitrogen nebulizing gas, and the flow rate of the sheath gas were set at 325°C, 10 l/min, 40 psi, 390°C, and 11 l/min, respectively. Results are represented as a percentage of a compound remaining in spiked human plasma.

[4] = system: HepG2 cells; experiment: Hepatotoxicity, XTT viability after 72 h; format: cell-based; settings: Homo sapiens; 72 h, HepG2, 5.5 mM glucose; read-out: Hepatotoxicity IC50, 5.5 mM glucose
Method: Then, the cell viability (XTT assay) and reactive oxygen species (ROS) induction were evaluated.
as §1, §2, §3

[5] = system: HepG2 cells; experiment: ROS induction (CM-H2DCFDA); format: cell-based; settings: Homo sapiens, HepG2, 72 h; read-out: ROS induction EC50
Method: as §1
The effect of neurosteroids on oxidative stress was determined using general oxidative stress indicator CM-H2DCFDA (Thermo Fisher Scientific, Waltham, MA, United States) according to the manufacturer’s instructions. Briefly HepG2 cells were seeded in a 96-well plate at a density of 13,500 cells per well. After 24 h, the tested neurosteroids were added to the culture media and incubated for 72 h. Subsequently, cells were washed with HBSS, treated with 100 μL of 1 μM CM-H2DCF-DA solution in HBSS and incubated for 1 h in the dark at 37°C. Finally, cells were washed three times with HBSS and the fluorescence was measured using 495 excitation and 527 emission in fluorescence microplate reader (Cytation 3, Winooski, VT, United States). IC50 index values were determined by GraphPad Prism version 5.00 for Windows (GraphPad Software, La Jolla, CA, United States).

[6] = Plasma stability, rat plasma; format: in vitro ADME
[7] = as repeated in Table 2, read-out: IC50
[8] = current responses to glutamate, HEK293, IC50 from single steroid dose, Hill coefficient fixed at 1.2, read-out: IC50 ± SD
[9] = read-out: Mitotoxicity IC50, 10 mM galactose
[10] = read-out: Mitotoxicity IC50, 25 mM glucose

T1 sequence (Q00960 27-1482, other chains not shown): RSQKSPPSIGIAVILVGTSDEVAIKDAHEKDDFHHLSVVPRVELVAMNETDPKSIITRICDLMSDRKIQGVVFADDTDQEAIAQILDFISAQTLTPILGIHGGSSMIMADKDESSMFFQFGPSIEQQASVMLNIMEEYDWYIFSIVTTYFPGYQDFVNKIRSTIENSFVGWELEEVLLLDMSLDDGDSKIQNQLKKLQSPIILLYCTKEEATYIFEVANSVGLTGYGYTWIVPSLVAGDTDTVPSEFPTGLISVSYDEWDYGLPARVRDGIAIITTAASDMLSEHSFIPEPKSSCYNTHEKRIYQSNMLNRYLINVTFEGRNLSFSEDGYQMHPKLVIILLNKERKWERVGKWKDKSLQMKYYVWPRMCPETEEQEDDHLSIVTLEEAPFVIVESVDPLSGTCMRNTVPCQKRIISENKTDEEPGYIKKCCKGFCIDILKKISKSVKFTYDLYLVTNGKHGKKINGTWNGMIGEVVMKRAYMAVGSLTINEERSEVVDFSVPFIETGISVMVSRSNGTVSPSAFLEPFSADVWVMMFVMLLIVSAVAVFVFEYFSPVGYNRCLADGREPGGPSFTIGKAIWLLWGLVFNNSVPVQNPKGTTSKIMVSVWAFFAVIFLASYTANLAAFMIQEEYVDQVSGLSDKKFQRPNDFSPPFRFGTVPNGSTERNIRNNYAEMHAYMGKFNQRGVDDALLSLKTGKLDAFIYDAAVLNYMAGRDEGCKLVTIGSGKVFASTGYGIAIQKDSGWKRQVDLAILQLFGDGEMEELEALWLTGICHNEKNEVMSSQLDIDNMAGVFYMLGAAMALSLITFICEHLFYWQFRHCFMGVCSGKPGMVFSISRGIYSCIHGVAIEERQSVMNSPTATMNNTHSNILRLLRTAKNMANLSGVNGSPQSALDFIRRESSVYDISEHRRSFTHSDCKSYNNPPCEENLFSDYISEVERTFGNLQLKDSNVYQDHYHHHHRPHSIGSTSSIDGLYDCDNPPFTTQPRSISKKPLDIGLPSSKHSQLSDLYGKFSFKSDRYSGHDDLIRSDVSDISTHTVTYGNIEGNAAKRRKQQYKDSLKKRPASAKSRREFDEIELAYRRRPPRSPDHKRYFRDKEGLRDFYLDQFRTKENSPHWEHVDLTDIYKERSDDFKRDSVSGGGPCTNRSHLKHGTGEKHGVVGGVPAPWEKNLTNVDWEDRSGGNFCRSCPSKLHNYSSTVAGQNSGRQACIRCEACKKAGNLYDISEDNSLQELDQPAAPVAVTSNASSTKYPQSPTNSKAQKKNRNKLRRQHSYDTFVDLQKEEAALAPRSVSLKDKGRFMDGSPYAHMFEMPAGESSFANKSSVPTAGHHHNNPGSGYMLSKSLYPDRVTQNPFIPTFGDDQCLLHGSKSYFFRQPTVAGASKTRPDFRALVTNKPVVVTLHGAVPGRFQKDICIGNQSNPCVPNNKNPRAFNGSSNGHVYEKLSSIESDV

SMILES	ΔGexp [1] [kcal/mol]	IC50 [1, 7] [µM]	IC50 ± SD ([1]; current responses to glutamate, HEK293, IC50 from single steroid dose, Hill coefficient fixed at 1.2)	IC50 [1, 8] [µM]	Glu/Gal index (fold change) [2]	IC50 [2, 9] [µM]	IC50 [2, 10] [µM]	remaining at 8 h, 42.1 μg/mL ([3]; human plasma, 8 h, 37°C, read-out: Plasma stability (% remaining after 8 h), Human) [%]	IC50 [4] [µM]	EC50 [5] [µM]	remaining at 8 h, 42.1 μg/mL ([6]; rat plasma, 8 h, 37°C, read-out: Plasma stability (% remaining after 8 h), Rat) [%]	remaining at 8 h, 42.1 μg/mL ([3]; human, plasma) [%]	remaining at 8 h, 42.1 μg/mL ([6]; rat, plasma) [%]	melting point [°C]
C[C@@]12CCC[C@H]1[C@@H]1CC[C@@H]3C[C@H](NC(=O)C(=O)O)CC[C@]3(C)[C@H]1CC2 [Compound 1, 2-(((3R,5R,8S,9S,10S,13S,14S)-10,13-dimethylhexadecahydro-1H-cyclopenta[a]phenanthren-3-yl)amino)-2-oxoacetic acid]	-6.39	21.7	least inhibitory activity	21.7 ± 4.8	1.97	72 ± 9	142 ± 12	100	42 ± 7	52 ± 6	100			
CS(=O)(=O)Nc1ccc([N+](=O)[O-])cc1Oc1ccccc1 [Nimesulide, nimesulide, reference compound]					3.88	18 ± 4	72 ± 8		2.2 ± 0.3	3.5 ± 0.5				
C[C@@]12CCC[C@H]1[C@@H]1CC[C@@H]3C[C@H](NC(=O)CC(=O)O)CC[C@]3(C)[C@H]1CC2 [Compound 2, 3-(((3R,5R,8S,9S,10S,13S,14S)-10,13-dimethylhexadecahydro-1H-cyclopenta[a]phenanthren-3-yl)amino)-3-oxopropanoic acid]	-6.59				1.32	174 ± 12	> 200		148 ± 14	165 ± 18		98	100	
CC(C)(C)OC(=O)N[C@@H](CCC(=O)O)C(=O)N[C@@H]1CC[C@@]2(C)[C@H](CC[C@@H]3[C@@H]4CCC[C@@]4(C)CC[C@@H]32)C1 [Compound 7, (S)-4-((tert-butoxycarbonyl)amino)-5-(((3R,5R,8R,9S,10S,13S,14S)-10,13-dimethylhexadecahydro-1H-cyclopenta[a]phenanthren-3-yl)amino)-5-oxopentanoic acid]	-7.22	5.4		5.4 ± 2.4		> 200	> 200		> 200	> 200		97	94	
CC(C)(C)OC(=O)N[C@@H](CC(=O)N[C@@H]1CC[C@@]2(C)[C@H](CC[C@H]3[C@@H]4CCC[C@@]4(C)CC[C@@H]32)C1)C(=O)O [Compound 9, (S)-2-((tert-butoxycarbonyl)amino)-4-(((3R,5R,8S,9S,10S,13S,14S)-10,13-dimethylhexadecahydro-1H-cyclopenta[a]phenanthren-3-yl)amino)-4-oxobutanoic acid]	-7.33	4.5		4.5 ± 0.6		> 200	> 200		> 200	> 200		100	99	154 to 157
C[C@@]12CCC[C@H]1[C@@H]1CC[C@@H]3C[C@H](NC(=O)CCCC(=O)O)CC[C@]3(C)[C@H]1CC2 [Compound 4, 5-(((3R,5R,8S,9S,10S,13S,14S)-10,13-dimethylhexadecahydro-1H-cyclopenta[a]phenanthren-3-yl)amino)-5-oxopentanoic acid]	-6.92	8.9		8.9 ± 1		11 ± 3	48 ± 6		4 ± 0.2	7 ± 2		96	99	
CC(C)(C)OC(=O)N[C@@H](CC(=O)O)C(=O)N[C@@H]1CC[C@@]2(C)[C@H](CC[C@H]3[C@@H]4CCC[C@@]4(C)CC[C@@H]32)C1 [Compound 5, (S)-3-((tert-butoxycarbonyl)amino)-4-(((3R,5R,8S,9S,10S,13S,14S)-10,13-dimethylhexadecahydro-1H-cyclopenta[a]phenanthren-3-yl)amino)-4-oxobutanoic acid]	-7.22	5.4		5.4 ± 2.3		> 200	> 200		> 200	> 200		100	93	
C[C@@]12CCC[C@H]1[C@@H]1CC[C@@H]3C[C@H](NC(=O)CCC(=O)O)CC[C@]3(C)[C@H]1CC2 [Compound 3, 4-(((3R,5R,8S,9S,10S,13S,14S)-10,13-dimethylhexadecahydro-1H-cyclopenta[a]phenanthren-3-yl)amino)-4-oxobutanoic acid]	-6.78	11.2		11.2 ± 7.2		> 200	> 200		> 200	> 200		98	100	
C[C@@]12CCC[C@H]1[C@@H]1CC[C@@H]3C[C@H](NC(=O)[C@@H](N)CCC(=O)O)CC[C@]3(C)[C@H]1CC2 [Compound 8, (S)-4-amino-5-(((3R,5R,8S,9S,10S,13S,14S)-10,13-dimethylhexadecahydro-1H-cyclopenta[a]phenanthren-3-yl)amino)-5-oxopentanoic acid]	-8.02	1.4		1.4 ± 0.2	1.04	94 ± 14	98 ± 11		65 ± 5	71 ± 9		98	95	
